Results on seven molecules are retold here after patent publication EP0497399A1, “Process for evaluating skin irritancy” (THE PROCTER & GAMBLE COMPANY, priority 1991, dated 1992).

The test system of data set [1] is HuK/F cultures. The experiment in a line: Lactate dehydrogenase release into culture medium (cytotoxicity). To be noted: 48 hours. The class given is cell-based, human. On the procedure: (§1) For each HuK/F experiment, on a 24 well plate, 1 test material is evaluated at 4 concentrations (in quadruplicate wells per each concentration). In addition, 4 wells serve as medium control, and 4 wells as sodium dodecyl sulfate positive control. For each material evaluated, a dose-range finding study is performed at 0.001, 0.01, 0.1 and 1.0% (w/v) concentrations to determine the concentration eliciting minimum and maximum cytotoxicity in the MTT assay of cell viability. Based on the dose-range finding study, a range of test material concentrations is selected to determine the concentration eliciting minimum and maximum cytotoxicity in the MTT assay of cell viability. Based on the dose-range finding study, concentrations are selected at the maximal cytoxicity level and minimum level and at two 1/3 log intervals between these concentrations (e.g., if the maximum cytoxicity was at 1% with no cytotoxicity or cell death at 0.1% the concentrations evaluated subsequently would be 0.1, 0.3, 0.6 and 1%).
(§2) On treatment day, growth medium is aseptically aspirated, and the cell meshes are treated with two ml of test medium per well. Medium alone served as a no treatment control with 0.01% sodium dodecyl sulfate acting as a positive control (n=4 wells/group). All test plates are incubated at 37 °C and 5% carbon dioxide for 4 to 72 hours. Observations are made (e.g. changes in medium color) during the treatment period.
(§3) • 1. Place one untreated, precut mesh (no cells) into one or more wells to determine the background non-specific binding (NSB) of MTT to mesh and to act as absolute blank. In remaining wells place 1 mesh per well of the fibroblast/keratinocyte co-cultures. Add 2 ml of the assay medium which is supplied with the test kit. (Marrow-Tech supplies a medium). • 2. Remove medium from each well and add 2 ml/well of test agent diluted in assay medium. Refeed untreated control mesh and mesh without cells with assay medium. • 3. Incubate 48 hours at 37 °C in 5%. carbon dioxide atmosphere. • 4. Prepare a solution of 0.5 mg/ml MTT (Sigma Chemical Co. Catalog #M-2128) in assay medium. Centrifuge MTT/medium for 5 minutes at 3000 RPM to pellet undissolved crystals, then prewarm MTT in a 37 °C waterbath. • 5. Remove spent medium. Use 1 ml aliquot to analyze for lactate dehydrogenase and N-acetylglucosaminidase release and glucose; 1 ml can be saved under nitrogen at -70 °C for PGE2 analysis at a later time. • 6. Add 1 ml/well MTT/medium solution. Add medium without MTT to absolute blank well. Incubate cultures at 37 °C, 5% carbon dioxide for 3 hours. • 7. Remove MTT/medium and wash each mesh 2 times with 1 ml Dulbecco's phosphate buffered saline with calcium and magnesium (PBS). About 2-5 minutes each wash. • 8. Remove second PBS wash and add 2 ml isopropanol/well at room temperature 2 hours. This will extract the formazan from mitochondria of cells into the supernatant. (Note: the amount of MTT taken up by a cell culture and subsequently released by solvent extraction is proportional to the number of viable cells within the culture). Remove meshes from test well and stir on shaking vortex mixer. • 9. Transfer 200 microliter aliquots of the blue spent solvent from each well to a 96 well microtiter plate and read absorbance at 540 nm blanking to absolute blank (well not exposed to the MTT). The wells containing the NSB meshes should be subtracted from the test well absorbances before performing calculations below.

For data set [2], the system named is HuK/F cultures. The experiment in a line: N-acetylglucosaminidase release into culture medium (cytotoxicity). As to conditions: 48 hours. In kind it is cell-based, human. As to the method:
as §1, §2, §3

The nature of data set [3]: MTT assay of cell viability in human skin cell co-cultures on nylon mesh. To be noted: human, huk/f skin cell co-culture. The class given is cell-based. (In general: Tetrazolium assays rely on reduction of a dye to a coloured formazan, in cell work by metabolically active cells.)
Procedure: (§4) The MTT assay measures the reduction of a tetrazolium dye by electron transport in mitochondria of viable cells, and subsequent intracellular trapping of the formazan product. • 1. […] It is a measure of cell viability, and is performed on all treatment meshes immediately following medium collection. The MTT assay quantitates the reduction and subsequent trapping of a yellow tetrazolium dye which is reduced by the electron transport chain of functional mitochondria to a purple formazan dye. Briefly, MTT (3-[4,5-Dimethylthiazol-2yl]-2,5-diphenyltetrazolium bromide; Sigma Catalog #M-2128) powder is diluted in cell culture medium (0.5 mg./ml.) and pre-warmed to 37 °C before use. One ml of this dye solution is aliquoted onto each mesh, and the meshes are then incubated 3 hours at 37 °C and 5% CO₂. After incubation, the MTT is aspirated, and 2 ml. of pure isopropanol is used to extract the reduced dye for two hours at room temperature. The meshes are removed from the culture well and extraction solvent mixed by stirring before aliquoting for absorbance readings. The absorbance of each extract is read at 540 nm on a Biotek EL-312 (96 well) spectrophotometer. • 2.
For the next data set, the system named is HuK cells. The class given is cell-based, human. On the procedure: Human neonatal foreskin keratinocytes are grown in keratinocyte growth medium-KGM complete with epidermal growth factor, insulin, hydrocortisone, anti-microbial agents and supplemented with bovine pituitary extract. (This medium is available from Clonetics). Cultures are maintained in a humidified atmosphere at 37 °C and 5% carbon dioxide throughout the experiment. Four days prior to treatments keratinocytes are trypsinized and subcultured. KGM medium is used and Clonetics reagents and methods used as per their standard protocol. Cells are plated at a density of about 33,000/ well in a 24 well Corning culture plate.
In preliminary experiments with HuK/F co-cultures, two vital dye assays measuring cell viability can be used. […] The MTT assay quantitates the reduction and subsequent trapping of a yellow tetrazolium dye which is reduced by the electron transport chain of functional mitochondria to a purple formazan dye. […] The meshes are removed from the culture well and extraction solvent mixed by stirring before aliquoting for absorbance readings. The absorbance of each extract is read at 540 nm on a Biotek EL-312 (96 well) spectrophotometer. • 2. The Neutral Red Bioassay is described in Borenfreund, E., and Puerner, J., A Simple Quantitative Procedure Using Monolayer Cultures for Cytotoxicity Assays (HTD/NR-90), J. Tissue Cult. […]

A further data set concerns HuF cells. In kind it is cell-based, human. As to the method:
Human neonatal fibroblasts are grown in Dulbecco's Modified Eagles Medium (DMEM) supplemented with 10% Fetal Bovine Serum (FBS) (provided by Marrow-Tech). This maintenance medium is the same formulation as described for the above co-cultures with the substitution of 10% FBS for the 2% Ultroser-G medium. Twenty-four hours prior to treatment fibroblasts are trypsinized (Gibco, Trypsin EDTA, Catalog #610-5200AG) by placing 2 ml of 0.25% trypsin over PBS washed cells. After about 1 minute the trypsin is aspirated and cells observed microscopically for rounding up and release from the culture dish. […]
In preliminary experiments with HuK/F co-cultures, two vital dye assays measuring cell viability can be used. […] The MTT assay quantitates the reduction and subsequent trapping of a yellow tetrazolium dye which is reduced by the electron transport chain of functional mitochondria to a purple formazan dye. […] The meshes are removed from the culture well and extraction solvent mixed by stirring before aliquoting for absorbance readings. The absorbance of each extract is read at 540 nm on a Biotek EL-312 (96 well) spectrophotometer. • 2. The Neutral Red Bioassay is described in Borenfreund, E., and Puerner, J., A Simple Quantitative Procedure Using Monolayer Cultures for Cytotoxicity Assays (HTD/NR-90), J. Tissue Cult. […] The cells are evaluated using the standard neutral red assay methodology. […]

A short description of a further data set: in vitro. To be noted: human, keratinocyte monolayer.
Data set [4] deals with HuK/F cultures. The data set is described as follows: MTT assay of cell viability in human skin cell co-cultures on nylon mesh. The class given is cell-based.
Procedure: as §4
The mark [5] stands for this setting: human, huk/f skin cell co-culture, 48 h.

Converted amounts (≈) assume the structure as drawn. Read-outs that look alike come from different tables or passages of the source. Marks after values point to notes of the source that are not given here.

What is called fold induction is the ratio of treated to control signal.

Source text for in vitro: The human keratinocyte monolayer cultures (available from Clonetics) were characterized using a fluorescein-labeled anti-cytokeratin antibody that stained the cytoskeleton of keratinocytes preferentially. This stain confirms that the cells are epithelial in nature.

In the case of `CC(C)(C)CC(C)(C)c1ccc(OCCOCC[N+](C)(C)Cc2ccccc2)cc1` [Benzethonium Chloride], the “Lactate Dehydrogenase Release” value in the data set on HuK/F cultures [1] (0.001 % w/v) is on record as 433.5+ U/L; with HuK/F cultures [1] (0.003 % w/v), 1408.0+* U/L; in the data set on HuK/F cultures [1] (0.006 % w/v), 1344.0+* U/L; with HuK/F cultures [1] (0.01 % w/v), 1471.5+ U/L. Moreover, the “N-Acetylglucosaminidase Release” value is listed as 21.20+ U/L in the data set with HuK/F cultures [2] (0.001 % w/v), 37.63+* U/L in the data set with HuK/F cultures [2] (0.003 % w/v), 37.10+* U/L with HuK/F cultures [2] (0.006 % w/v) and 21.73+* U/L in the data set on HuK/F cultures [2] (0.01 % w/v).

Consider `CCCCCCCCCCCC[N+](C)(C)[O-]` [C12 DDAO, Dodecyl Dimethyl Amine Oxide], for which, in data set [3], the CC50 at 48 h is 180 µg/mL (≈ 0.785 mM). Besides, the “Lactate Dehydrogenase Release” value is 116.0+ U/L with HuK/F cultures [1] (0.01 % w/v), 1270.0+ U/L in the data set on HuK/F cultures [1] (0.03 % w/v), 1261.5+ U/L in the data set with HuK/F cultures [1] (0.06 % w/v) and 1196.0+ U/L in the data set with HuK/F cultures [1] (0.1 % w/v). Moreover, the “N-Acetylglucosaminidase Release” value is on record as 21.15 U/L with HuK/F cultures [2] (0.01 % w/v), 23.53+ U/L in the data set with HuK/F cultures [2] (0.03 % w/v), 23.33+ U/L in the data set with HuK/F cultures [2] (0.06 % w/v) and 26.90+ U/L with HuK/F cultures [2] (0.1 % w/v).

In the case of `CCCCCCCCCCCCOS(=O)(=O)[O-].[Na+]` [Sodium Dodecyl Sulfate], in data set [3] (concentration w/v giving 50% decrease in MTT dye uptake vs untreated control, HuK/F, 48 hours, read-out: MTT-50 Endpoint (Concentration w/v)), the CC50 at 48 h turned out to be 57 µg/mL. Besides, the “more sensitive than HuK/F cultures (decrease in cell viability, NR assay)” value in the data set with HuK cells and with HuF cells was “about 10 fold” in each case. The fold induction at 48 h in “in vitro” is about 2.5.

Regarding `CCCCCCCC/C=C\CCCCCCCC(=O)OCCOCC(OCCO)C1OCC(OCCO)C1OCCO` (stereo not drawn) [Tween 80, Polyoxyethylenesorbitan Monooleate], the CC50 at 48 h in data set [3] turned out to be 4300 µg/mL (≈ 7.11 mM).

On to “Ammonium Coconut Alkyl Ethoxylate 6.5 Sulfate [NH4CNAE6.5S]”, for which the “MTT-50 Endpoint (Concentration w/v)” value in the data set on HuK/F cultures [4] (setting [5]) was found to be 0.019%.

In the case of “Ammonium Coconut Alkyl Ethoxylate 12 Sulfate [NH4CNAE12S]”, in the data set on HuK/F cultures [4] (setting [5]), the “MTT-50 Endpoint (Concentration w/v)” value worked out at 0.025%.

Turning to Benzalkonium Chloride, the “MTT-50 Endpoint (Concentration w/v)” value in the data set on HuK/F cultures [4] (concentration w/v giving 50% decrease in MTT dye uptake vs untreated control, HuK/F, 48 hours) worked out at 0.0007%. The “Lactate Dehydrogenase Release” value with HuK/F cultures [1] (0.0005 % w/v) is reported as 138.5+ U/L; in the data set on HuK/F cultures [1] (0.001 % w/v) it was 1032.0+* U/L; in the data set on HuK/F cultures [1] (0.005 % w/v), 1334.5+* U/L; in the data set with HuK/F cultures [1] (0.01 % w/v), 1236.5+* U/L. Moreover, the “N-Acetylglucosaminidase Release” value is listed as 14.95+ U/L in the data set on HuK/F cultures [2] (0.0005 % w/v), 18.08+* U/L with HuK/F cultures [2] (0.001 % w/v), 19.93+* U/L in the data set on HuK/F cultures [2] (0.005 % w/v) and 11.98+* U/L in the data set with HuK/F cultures [2] (0.01 % w/v).
